# “And” between values parts separate entries of the source, which are not always exact repeats. Equal values may be shown once.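 Dose response: 5 concentrations. Exposure: 48 h. Format: 96-well plates. Endpoint: linear interpolation; highest concentration if not reached. GI50 is the concentration that inhibits growth by half. TGI: concentration producing complete growth inhibition.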
# What was measured:
# Test in all cases: inhibition of tumour cell growth, NCI panel, 48 h
# SNB-78 CNS = test system: SNB-78 CNS
# RXF 393 renal = test system: RXF 393 renal
# CAKI-1 renal = test system: CAKI-1 renal
# EKVX NSCLC = test system: EKVX NSCLC
# DMS 273 small cell lung = test system: DMS 273 small cell lung
# RPMI-8226 leukemia = test system: RPMI-8226 leukemia
# LOX IMVI melanoma = test system: LOX IMVI melanoma
# SNB-19 CNS = test system: SNB-19 CNS
# NCI-H23 lung = test system: NCI-H23 lung
# HCT-116 colon = test system: HCT-116 colon
# CCRF-CEM leukemia = test system: CCRF-CEM leukemia
# KM12 colon = test system: KM12 colon
# SN12C renal = test system: SN12C renal
# DMS 114 small cell lung = test system: DMS 114 small cell lung
# OVCAR-5 ovarian = test system: OVCAR-5 ovarian
# SNB-75 CNS = test system: SNB-75 CNS
# HCC-2998 colon = test system: HCC-2998 colon
# TK-10 renal = test system: TK-10 renal
# NCI-H460 lung = test system: NCI-H460 lung
# U251 CNS = test system: U251 CNS
# HOP-92 NSCLC = test system: HOP-92 NSCLC
# KM20L2 colon = test system: KM20L2 colon
# SK-OV-3 ovarian = test system: SK-OV-3 ovarian
# SK-MEL-28 melanoma = test system: SK-MEL-28 melanoma
# SR leukemia = test system: SR leukemia
# OVCAR-4 ovarian = test system: OVCAR-4 ovarian
# HOP-62 NSCLC = test system: HOP-62 NSCLC
# SF-295 CNS = test system: SF-295 CNS
# SF-539 CNS = test system: SF-539 CNS
# UO-31 renal = test system: UO-31 renal
# HL-60(TB) leukemia = test system: HL-60(TB) leukemia
# 786-0 renal = test system: 786-0 renal
# HT29 colon = test system: HT29 colon
# M19-MEL melanoma = test system: M19-MEL melanoma
# UACC-257 melanoma = test system: UACC-257 melanoma
# SK-MEL-2 melanoma = test system: SK-MEL-2 melanoma
# SK-MEL-5 melanoma = test system: SK-MEL-5 melanoma
# OVCAR-8 ovarian = test system: OVCAR-8 ovarian
# NCI-H522 lung = test system: NCI-H522 lung
# MOLT-4 leukemia = test system: MOLT-4 leukemia
# HCT-15 colon = test system: HCT-15 colon
# K-562 leukemia = test system: K-562 leukemia
# DLD-1 colon = test system: DLD-1 colon
# HOP-18 NSCLC = test system: HOP-18 NSCLC
# NCI-H226 lung = test system: NCI-H226 lung
# A498 renal = test system: A498 renal
# ACHN renal = test system: ACHN renal
# SW-620 colon = test system: SW-620 colon
# UACC-62 melanoma = test system: UACC-62 melanoma
# MALME-3M melanoma = test system: MALME-3M melanoma
# A549 NSCLC = test system: A549 NSCLC
# M14 melanoma = test system: M14 melanoma
# IGROV1 ovarian = test system: IGROV1 ovarian
# SF-268 CNS = test system: SF-268 CNS
# XF 498 CNS = test system: XF 498 CNS
# RXF-631 renal = test system: RXF-631 renal
# COLO 205 colon = test system: COLO 205 colon
# LXFL 529 NSCLC = test system: LXFL 529 NSCLC
# OVCAR-3 ovarian = test system: OVCAR-3 ovarian
smiles,measurement,setting,value
C=C1C(C(=O)O)C1C(=O)O (stereo not given),TGI,SNB-78 CNS,> 100 µM
same,TGI,RXF 393 renal,> 100 µM
same,TGI,CAKI-1 renal,> 100 µM
same,TGI,EKVX NSCLC,> 100 µM
same,TGI,DMS 273 small cell lung,> 100 µM
same,TGI,RPMI-8226 leukemia,> 100 µM
same,TGI,LOX IMVI melanoma,> 100 µM
same,TGI,SNB-19 CNS,> 100 µM
same,TGI,NCI-H23 lung,> 100 µM
same,TGI,HCT-116 colon,> 100 µM
same,TGI,CCRF-CEM leukemia,> 100 µM
same,TGI,KM12 colon,> 100 µM
same,TGI,SN12C renal,> 100 µM
same,TGI,DMS 114 small cell lung,> 100 µM
same,TGI,OVCAR-5 ovarian,> 100 µM
same,TGI,SNB-75 CNS,> 100 µM
same,TGI,HCC-2998 colon,> 100 µM
same,TGI,TK-10 renal,> 100 µM
same,TGI,NCI-H460 lung,> 100 µM
same,TGI,U251 CNS,> 100 µM
same,TGI,HOP-92 NSCLC,> 100 µM
same,TGI,KM20L2 colon,> 100 µM
same,TGI,SK-OV-3 ovarian,> 100 µM
same,TGI,SK-MEL-28 melanoma,> 100 µM
same,TGI,SR leukemia,> 100 µM
same,TGI,OVCAR-4 ovarian,> 100 µM
same,TGI,HOP-62 NSCLC,> 100 µM
same,TGI,SF-295 CNS,> 100 µM
same,TGI,SF-539 CNS,> 100 µM
same,TGI,UO-31 renal,> 100 µM
same,TGI,HL-60(TB) leukemia,> 100 µM
same,TGI,786-0 renal,> 100 µM
same,TGI,HT29 colon,> 100 µM
same,TGI,M19-MEL melanoma,> 100 µM
same,TGI,UACC-257 melanoma,> 100 µM
same,TGI,SK-MEL-2 melanoma,> 100 µM
same,TGI,SK-MEL-5 melanoma,> 100 µM
same,TGI,OVCAR-8 ovarian,> 100 µM
same,TGI,NCI-H522 lung,> 100 µM
same,TGI,MOLT-4 leukemia,> 100 µM
same,TGI,HCT-15 colon,> 100 µM
same,TGI,K-562 leukemia,> 100 µM
same,TGI,DLD-1 colon,> 100 µM
same,TGI,HOP-18 NSCLC,> 100 µM
same,TGI,NCI-H226 lung,> 100 µM
same,TGI,A498 renal,> 100 µM
same,TGI,ACHN renal,> 100 µM
same,TGI,SW-620 colon,> 100 µM
same,TGI,UACC-62 melanoma,> 100 µM
same,TGI,MALME-3M melanoma,> 100 µM
same,TGI,A549 NSCLC,> 100 µM
same,TGI,M14 melanoma,> 100 µM
same,TGI,IGROV1 ovarian,> 100 µM
same,TGI,SF-268 CNS,> 100 µM
same,TGI,XF 498 CNS,> 100 µM
Cc1cc(C)c(C(=O)C(C)C(c2ccccc2)c2ccc(Cl)cc2)c(C)c1 (stereo not given),TGI,RXF 393 renal,> 100 µM
same,TGI,CAKI-1 renal,> 100 µM
same,TGI,EKVX NSCLC,> 100 µM
same,GI50,RPMI-8226 leukemia,82.4 µM and 29.3 µM
same,TGI,RPMI-8226 leukemia,> 100 µM
same,GI50,SNB-19 CNS,> 100 µM
same,TGI,SNB-19 CNS,> 100 µM
same,TGI,NCI-H23 lung,> 100 µM
same,TGI,HCT-116 colon,> 100 µM
same,TGI,CCRF-CEM leukemia,> 100 µM
same,TGI,KM12 colon,> 100 µM
same,TGI,SN12C renal,> 100 µM
same,TGI,DMS 114 small cell lung,> 100 µM
same,TGI,SNB-75 CNS,> 100 µM
same,TGI,TK-10 renal,> 100 µM
same,TGI,NCI-H460 lung,> 100 µM
same,TGI,U251 CNS,> 100 µM
same,GI50,HOP-92 NSCLC,47.4 µM and > 100 µM
same,TGI,HOP-92 NSCLC,> 100 µM
same,TGI,RXF-631 renal,> 100 µM
same,GI50,KM20L2 colon,> 100 µM and 47.2 µM
same,TGI,KM20L2 colon,> 100 µM
same,TGI,SK-OV-3 ovarian,> 100 µM
same,TGI,COLO 205 colon,> 100 µM
same,TGI,SK-MEL-28 melanoma,> 100 µM
same,TGI,SR leukemia,> 100 µM
same,TGI,OVCAR-4 ovarian,> 100 µM
same,TGI,HOP-62 NSCLC,> 100 µM
same,TGI,SF-295 CNS,> 100 µM
same,TGI,SF-539 CNS,> 100 µM
same,TGI,UO-31 renal,> 100 µM
same,GI50,HL-60(TB) leukemia,> 100 µM and 39.6 µM
same,TGI,HL-60(TB) leukemia,> 100 µM
same,TGI,786-0 renal,> 100 µM
same,TGI,HT29 colon,> 100 µM
same,TGI,M19-MEL melanoma,> 100 µM
same,TGI,UACC-257 melanoma,> 100 µM
same,GI50,SK-MEL-2 melanoma,9.38 µM and 32.1 µM
same,TGI,SK-MEL-2 melanoma,> 100 µM
same,TGI,SK-MEL-5 melanoma,> 100 µM
same,TGI,OVCAR-8 ovarian,> 100 µM
same,GI50,NCI-H522 lung,> 100 µM and 15.9 µM
same,TGI,NCI-H522 lung,> 100 µM and 65.5 µM
same,TGI,MOLT-4 leukemia,> 100 µM
same,TGI,HCT-15 colon,> 100 µM
same,TGI,K-562 leukemia,> 100 µM
same,TGI,DLD-1 colon,> 100 µM
same,TGI,HOP-18 NSCLC,> 100 µM
same,TGI,NCI-H226 lung,> 100 µM
same,TGI,LXFL 529 NSCLC,> 100 µM
same,TGI,ACHN renal,> 100 µM
same,TGI,SW-620 colon,> 100 µM
same,TGI,OVCAR-3 ovarian,> 100 µM
same,TGI,UACC-62 melanoma,> 100 µM
same,TGI,MALME-3M melanoma,71.9 µM and > 100 µM
same,TGI,A549 NSCLC,> 100 µM
same,TGI,M14 melanoma,> 100 µM
same,TGI,IGROV1 ovarian,> 100 µM
same,TGI,SF-268 CNS,> 100 µM
same,TGI,XF 498 CNS,> 100 µM

# — PubChem BioAssay (NCI)
